Laboratory results: US20210330611A1, “THERAPY FOR NEUROLOGICAL DISEASES/DISORDERS” (priority 2020, published 2021)
Counter-ions that a name gives are not always drawn. Like-named read-outs stand apart in the source and are kept apart here.

Experiments:
[1] = system: fibrin- and LPS-induced microglia activation; experiment: cells; type: cell-based, rat
primary rat microglia [2] = experiment: Cell toxicity (dead cells, size <150 μm2) in coated fibrin (cFib) assay; settings: primary microglia HTS;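 further: share of dead cells sized under 150 µm2 at 10 µM in fibrin-stimulated microglia HTS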
primary rat microglia [3] = experiment: Cell toxicity (dead cells, size <150 μm2) in LPS assay; settings: primary microglia HTS
[4] = system: fibrin-induced microglia activation; experiment: Image-based assay of fibrin-induced microglia activation (HTS and dose response); type: cell-based, rat; settings: for inhibition at 10 µM / Fibrin % inhibition: primary microglia HTS; for inhibition at 10 µM: read-out: Fibrin % inhibition
[5] = system: LPS-induced microglia activation; experiment: Image-based assay of LPS-induced microglia activation (HTS and dose response); type: cell-based, rat; settings: for inhibition at 10 µM / LPS % inhibition: primary microglia HTS; for inhibition at 10 µM: read-out: LPS % inhibition
[6] = HTS of 1907 compounds, quadrant by fibrin and LPS inhibition
[7] = 10 μM, fibrin assay, cell size <150 μm^2 as marker of toxicity
[8] = 10 μM, LPS assay, cell size <150 μm^2 as marker of toxicity
[9] = Rattus norvegicus, Microglia, 10 μM, fibrin-stimulated, cell size >800 μm^2 as marker of activation
[10] = Rattus norvegicus, Microglia, 10 μM, LPS-stimulated, cell size >800 μm^2 as marker of activation
[11] = 10 μM, fibrin-stimulated, cell size >800 μm^2 as marker of activation
[12] = 10 μM, LPS-stimulated, cell size >800 μm^2 as marker of activation
[13] = quadrant by fibrin and LPS inhibition in HTS of 1907 compounds
[14] = fibrin stimulation, decreased size (<150 μm^2) as marker of toxicity
[15] = LPS stimulation, decreased size (<150 μm^2) as marker of toxicity
[16] = Rattus norvegicus, Microglia, fibrin stimulation, increased cell size (>800 μm^2) as marker of activation
[17] = Rattus norvegicus, Microglia, 48 h, LPS stimulation, increased cell size (>800 μm^2) as marker of activation

Compound | Quadrant (FIG. 5b) [1, 6] | Fibrin % cell toxicity (primary rat microglia [2]; [7]) | LPS % cell toxicity (primary rat microglia [3]; [8]) | inhibition at 10 µM [4, 9] | inhibition at 10 µM [5, 10] | also measured
CC(=O)Nc1ccc(S(=O)(=O)Nc2ccc([N+](=O)[O-])cc2)cc1 [Sulfanitran] | Q4 | 1% | 0% | 10% | 18% | 
Nc1ccc(S(=O)(=O)Nc2ccnn2-c2ccccc2)cc1 [Sulfaphenazole] | Q4 | 1% | 0% | -4% | 14% | 
O=C1C(CC[S+]([O-])c2ccccc2)C(=O)N(c2ccccc2)N1c1ccccc1 (centres unmarked) [Sulfinpyrazone] | Q4 | 1% | 1% | -6% | 13% | 
CC(=O)N(c1onc(C)c1C)S(=O)(=O)c1ccc(N)cc1 [Sulfisoxazole Acetyl] | Q4 | 1% | 1% | -3% | 17% | 
Cc1noc(NS(=O)(=O)c2ccc(N)cc2)c1C [Sulfisoxazole] | Q4 | 0% | 0% | -11% | 6% | 
CC1=C(CC(=O)O)c2cc(F)ccc2/C1=C\c1ccc(S(C)(=O)=O)cc1 [Sulindac Sulfone] | Q4 | 1% | 0% |  |  | Fibrin % inhibition [4, 11]: −27%; LPS % inhibition [5, 12]: 3%
COc1cc(O)c(C(=O)c2ccccc2)cc1S(=O)(=O)O [Sulisobenzone] | Q4 | 0% | 0% | -19% | -2% | 
CNS(=O)(=O)Cc1ccc2[nH]cc(CCN(C)C)c2c1 [Sumatriptan] | Q4 | 1% | 0% | -7% | 8% | 
Cc1ccc(C(=O)Nc2ccc(S(=O)(=O)O)c3cc(S(=O)(=O)O)cc(S(=O)(=O)O)c23)cc1NC(=O)c1cccc(NC(=O)Nc2cccc(C(=O)Nc3cc(C(=O)Nc4ccc(S(=O)(=O)O)c5cc(S(=O)(=O)O)cc(S(=O)(=O)O)c45)ccc3C)c2)c1 [Suramin] | Q4 | 0% | 0% | -5% | 18% | 
CCCCC1(COC(=O)CCC(=O)O)C(=O)N(c2ccccc2)N(c2ccccc2)C1=O [Suxibuzone] | Q4 | 1% | 0% | 25% | 23% | 
CNCC(O)c1ccc(O)cc1 (centres unmarked) [Synephrine] | Q4 | 0% | 0% | -16% | 12% | 
C=CC[C@@H]1/C=C(\C)C[C@H](C)C[C@H](OC)[C@H]2O[C@@](O)(C(=O)C(=O)N3CCCC[C@H]3C(=O)O[C@H](/C(C)=C/[C@@H]3CC[C@@H](O)[C@H](OC)C3)[C@H](C)[C@@H](O)CC1=O)[C@H](C)C[C@@H]2OC [Tacrolimus] | Q4 | 1% | 0% | 27% | 14% | 
CN1CC(=O)N2[C@H](c3ccc4c(c3)OCO4)c3[nH]c4ccccc4c3C[C@@H]2C1=O [Tadalafil] | Q4 | 1% | 0% | -1% | 16% | 
CCOc1ccccc1OCCN[C@H](C)Cc1ccc(OC)c(S(N)(=O)=O)c1.Cl [Tamsulosin Hydrchloride] | Q4 | 0% | 0% |  |  | Fibrin % inhibition [4, 11]: −31%; LPS % inhibition [5, 12]: 12%
CCOc1ccccc1OCCN[C@H](C)Cc1ccc(OC)c(S(N)(=O)=O)c1 [Tamsulosin] |  |  |  |  |  | Quadrant (FIG. 5b) [1, 13]: Q1; Fibrin % cell toxicity (primary rat microglia [2]; [14]): 1%; LPS % cell toxicity (primary rat microglia [3]; [15]): 2%; inhibition at 10 µM [4, 16]: 20%; inhibition at 10 µM [5, 17]: 59%
O=C(OC[C@H]1O[C@@H](OC(=O)c2cc(O)c(O)c(OC(=O)c3cc(O)c(O)c(O)c3)c2)[C@H](OC(=O)c2cc(O)c(O)c(OC(=O)c3cc(O)c(O)c(O)c3)c2)[C@@H](OC(=O)c2cc(O)c(O)c(OC(=O)c3cc(O)c(O)c(O)c3)c2)[C@@H]1OC(=O)c1cc(O)c(O)c(OC(=O)c2cc(O)c(O)c(O)c2)c1)c1cc(O)c(O)c(OC(=O)c2cc(O)c(O)c(O)c2)c1 [Tannic acid, reference compound] |  |  |  |  |  | Quadrant (FIG. 5b) ([1]; Table 2, screen at 10 μM): Q4; Activity ([1]; Table 7, fib = fibrin, LPS, tox = toxicity): fib/LPS; Quadrant (FIG. 5b) [1, 13]: Q4; Fibrin % cell toxicity (primary rat microglia [2]; [14]): 0%; LPS % cell toxicity (primary rat microglia [3]; [15]): 1%; IC50 ([4]; Rattus norvegicus, Microglia, Table 7, read-out: fib_IC50): 4.96 µM; inhibition at 10 µM [4, 16]: -60%; inhibition at 10 µM [5, 17]: 32%; IC50 ([5]; Rattus norvegicus, Microglia, Table 7, read-out: LPS_IC50): 4.38 µM
CCCCC/C=C\CCC(=O)N[C@H]1[C@H](Oc2c3cc4cc2Oc2ccc(cc2Cl)[C@@H](O[C@@H]2O[C@H](CO)[C@@H](O)[C@H](O)[C@H]2NC(C)=O)[C@@H]2NC(=O)[C@H](NC(=O)[C@@H]4NC(=O)[C@H]4NC(=O)[C@@H](Cc5ccc(c(Cl)c5)O3)NC(=O)[C@H](N)c3ccc(O)c(c3)Oc3cc(O)cc4c3)c3ccc(O)c(c3)-c3c(O[C@H]4O[C@H](CO)[C@@H](O)[C@H](O)[C@@H]4O)cc(O)cc3[C@@H](C(=O)O)NC2=O)O[C@H](CO)[C@@H](O)[C@@H]1O [Teicoplanin [a(2-1) Shown]] | Q4 | 1% | 0% |  |  | Fibrin % inhibition [4, 11]: 43%; LPS % inhibition [5, 12]: 20%
CCCc1nc2c(C)cc(-c3nc4ccccc4n3C)cc2n1Cc1ccc(-c2ccccc2C(=O)O)cc1 [Telmisartan] | Q4 | 0% | 0% | -24% | -2% | 
COc1ccc2[nH]c([S+]([O-])Cc3ncc(C)c(OC)c3C)nc2n1 (centres unmarked) [Tenatoprazole] | Q4 | 1% | 0% | -17% | 9% | 
C[C@H](Cn1cnc2c(N)ncnc21)OCP(=O)(O)O [Tenofovir] | Q4 | 0% | 0% |  |  | Fibrin % inhibition [4, 11]: −10%; LPS % inhibition [5, 12]: 17%
O=C1/C(=C/c2cccs2)CCC/C1=C\c1cccs1 [Tenylidone] | Q4 | 1% | 0% | -9% | 15% | 
CN(C/C=C/C#CC(C)(C)C)Cc1cccc2ccccc12 [Terbinafine, Terbinafine Hydrochloride] | Q4 | 0% | 0% |  |  | Fibrin % inhibition [4, 11]: −23%; LPS % inhibition [5, 12]: 6%
CC(C)(C)NCC(O)c1cc(O)cc(O)c1 (centres unmarked) [Terbutaline] | Q4 | 1% | 0% | 39% | 28% | 
